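Briefly, cells in 96-well plates were exposed to five compound concentrations for 48 h, and endpoints were estimated by linear interpolation. At the TGI there is no net growth.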
System: EKVX NSCLC
Experiment: growth of human tumour cells (NCI), 48 h

Compound	TGI [µM]
CC(C)=CC(=O)c1[nH]c2ccccc2c1CC(=O)NCCc1cn(C(c2ccccc2)(c2ccccc2)c2ccccc2)cn1	> 100
CCCCC(=O)OC[n+]1cccc(-c2c(COC(=O)NC(C)C)c(COC(=O)NC(C)C)c3n2CCC3)c1	> 100
CCOC(=O)NC(Nc1ccc(OC(F)(F)F)cc1)(C(F)(F)F)C(F)(F)F	> 100

System: DU-145 prostate
Experiment: growth of human tumour cells (NCI), 48 h

Compound	TGI [µM]
COc1ccc(N2C(=O)C3c4[nH]c5ccccc5c4C4CCC(c5ccccc5)CC4C3C2=O)cc1 (centres undefined)	> 100
CC(C)=CC(=O)c1[nH]c2ccccc2c1CC(=O)NCCc1cn(C(c2ccccc2)(c2ccccc2)c2ccccc2)cn1	> 100
CCCCC(=O)OC[n+]1cccc(-c2c(COC(=O)NC(C)C)c(COC(=O)NC(C)C)c3n2CCC3)c1	71.6
CCOC(=O)NC(Nc1ccc(OC(F)(F)F)cc1)(C(F)(F)F)C(F)(F)F	> 100

System: RPMI-8226 leukemia
Experiment: growth of human tumour cells (NCI), 48 h

Compound	TGI [µM]
COc1ccc(N2C(=O)C3c4[nH]c5ccccc5c4C4CCC(c5ccccc5)CC4C3C2=O)cc1 (centres undefined)	78.6
CC(C)=CC(=O)c1[nH]c2ccccc2c1CC(=O)NCCc1cn(C(c2ccccc2)(c2ccccc2)c2ccccc2)cn1	5.23
CCCCC(=O)OC[n+]1cccc(-c2c(COC(=O)NC(C)C)c(COC(=O)NC(C)C)c3n2CCC3)c1	> 100
CCOC(=O)NC(Nc1ccc(OC(F)(F)F)cc1)(C(F)(F)F)C(F)(F)F	> 100

System: MOLT-4 leukemia
Experiment: growth of human tumour cells (NCI), 48 h

Compound	TGI [µM]
COc1ccc(N2C(=O)C3c4[nH]c5ccccc5c4C4CCC(c5ccccc5)CC4C3C2=O)cc1 (centres undefined)	> 100
CC(C)=CC(=O)c1[nH]c2ccccc2c1CC(=O)NCCc1cn(C(c2ccccc2)(c2ccccc2)c2ccccc2)cn1	5.49
CCCCC(=O)OC[n+]1cccc(-c2c(COC(=O)NC(C)C)c(COC(=O)NC(C)C)c3n2CCC3)c1	> 100
CCOC(=O)NC(Nc1ccc(OC(F)(F)F)cc1)(C(F)(F)F)C(F)(F)F	> 100

System: A549 NSCLC
Experiment: growth of human tumour cells (NCI), 48 h

Compound	TGI [µM]
COc1ccc(N2C(=O)C3c4[nH]c5ccccc5c4C4CCC(c5ccccc5)CC4C3C2=O)cc1 (centres undefined)	> 78.1
CC(C)=CC(=O)c1[nH]c2ccccc2c1CC(=O)NCCc1cn(C(c2ccccc2)(c2ccccc2)c2ccccc2)cn1	> 27.4
CCCCC(=O)OC[n+]1cccc(-c2c(COC(=O)NC(C)C)c(COC(=O)NC(C)C)c3n2CCC3)c1	> 100
CCOC(=O)NC(Nc1ccc(OC(F)(F)F)cc1)(C(F)(F)F)C(F)(F)F	> 100

System: NCI/ADR-RES ovarian
Experiment: growth of human tumour cells (NCI), 48 h

Compound	TGI [µM]
COc1ccc(N2C(=O)C3c4[nH]c5ccccc5c4C4CCC(c5ccccc5)CC4C3C2=O)cc1 (centres undefined)	> 59.3
CC(C)=CC(=O)c1[nH]c2ccccc2c1CC(=O)NCCc1cn(C(c2ccccc2)(c2ccccc2)c2ccccc2)cn1	10.8
CCCCC(=O)OC[n+]1cccc(-c2c(COC(=O)NC(C)C)c(COC(=O)NC(C)C)c3n2CCC3)c1	> 100
CCOC(=O)NC(Nc1ccc(OC(F)(F)F)cc1)(C(F)(F)F)C(F)(F)F	> 100

System: OVCAR-5 ovarian
Experiment: growth of human tumour cells (NCI), 48 h

Compound	TGI [µM]
COc1ccc(N2C(=O)C3c4[nH]c5ccccc5c4C4CCC(c5ccccc5)CC4C3C2=O)cc1 (centres undefined)	> 100
CC(C)=CC(=O)c1[nH]c2ccccc2c1CC(=O)NCCc1cn(C(c2ccccc2)(c2ccccc2)c2ccccc2)cn1	87.7
CCCCC(=O)OC[n+]1cccc(-c2c(COC(=O)NC(C)C)c(COC(=O)NC(C)C)c3n2CCC3)c1	> 100
CCOC(=O)NC(Nc1ccc(OC(F)(F)F)cc1)(C(F)(F)F)C(F)(F)F	> 100

System: ACHN renal
Experiment: growth of human tumour cells (NCI), 48 h

Compound	TGI [µM]
COc1ccc(N2C(=O)C3c4[nH]c5ccccc5c4C4CCC(c5ccccc5)CC4C3C2=O)cc1 (centres undefined)	47.9
CC(C)=CC(=O)c1[nH]c2ccccc2c1CC(=O)NCCc1cn(C(c2ccccc2)(c2ccccc2)c2ccccc2)cn1	> 100
CCCCC(=O)OC[n+]1cccc(-c2c(COC(=O)NC(C)C)c(COC(=O)NC(C)C)c3n2CCC3)c1	82.8
CCOC(=O)NC(Nc1ccc(OC(F)(F)F)cc1)(C(F)(F)F)C(F)(F)F	> 100

System: UACC-257 melanoma
Experiment: growth of human tumour cells (NCI), 48 h

Compound	TGI [µM]
COc1ccc(N2C(=O)C3c4[nH]c5ccccc5c4C4CCC(c5ccccc5)CC4C3C2=O)cc1 (centres undefined)	97.5
CC(C)=CC(=O)c1[nH]c2ccccc2c1CC(=O)NCCc1cn(C(c2ccccc2)(c2ccccc2)c2ccccc2)cn1	> 67.4
CCCCC(=O)OC[n+]1cccc(-c2c(COC(=O)NC(C)C)c(COC(=O)NC(C)C)c3n2CCC3)c1	> 100
CCOC(=O)NC(Nc1ccc(OC(F)(F)F)cc1)(C(F)(F)F)C(F)(F)F	> 100

System: HL-60(TB) leukemia
Experiment: growth of human tumour cells (NCI), 48 h

Compound	TGI [µM]
COc1ccc(N2C(=O)C3c4[nH]c5ccccc5c4C4CCC(c5ccccc5)CC4C3C2=O)cc1 (centres undefined)	> 34.8
CC(C)=CC(=O)c1[nH]c2ccccc2c1CC(=O)NCCc1cn(C(c2ccccc2)(c2ccccc2)c2ccccc2)cn1	3.44
CCCCC(=O)OC[n+]1cccc(-c2c(COC(=O)NC(C)C)c(COC(=O)NC(C)C)c3n2CCC3)c1	> 81.9
CCOC(=O)NC(Nc1ccc(OC(F)(F)F)cc1)(C(F)(F)F)C(F)(F)F	> 100

System: SK-OV-3 ovarian
Experiment: growth of human tumour cells (NCI), 48 h

Compound	TGI [µM]
COc1ccc(N2C(=O)C3c4[nH]c5ccccc5c4C4CCC(c5ccccc5)CC4C3C2=O)cc1 (centres undefined)	54.8
CC(C)=CC(=O)c1[nH]c2ccccc2c1CC(=O)NCCc1cn(C(c2ccccc2)(c2ccccc2)c2ccccc2)cn1	> 100
CCCCC(=O)OC[n+]1cccc(-c2c(COC(=O)NC(C)C)c(COC(=O)NC(C)C)c3n2CCC3)c1	> 100
CCOC(=O)NC(Nc1ccc(OC(F)(F)F)cc1)(C(F)(F)F)C(F)(F)F	> 100

System: M14 melanoma
Experiment: growth of human tumour cells (NCI), 48 h

Compound	TGI [µM]
COc1ccc(N2C(=O)C3c4[nH]c5ccccc5c4C4CCC(c5ccccc5)CC4C3C2=O)cc1 (centres undefined)	> 94.4
CC(C)=CC(=O)c1[nH]c2ccccc2c1CC(=O)NCCc1cn(C(c2ccccc2)(c2ccccc2)c2ccccc2)cn1	4.8
CCCCC(=O)OC[n+]1cccc(-c2c(COC(=O)NC(C)C)c(COC(=O)NC(C)C)c3n2CCC3)c1	> 100
CCOC(=O)NC(Nc1ccc(OC(F)(F)F)cc1)(C(F)(F)F)C(F)(F)F	> 100

System: U251 CNS
Experiment: growth of human tumour cells (NCI), 48 h

Compound	TGI [µM]
COc1ccc(N2C(=O)C3c4[nH]c5ccccc5c4C4CCC(c5ccccc5)CC4C3C2=O)cc1 (centres undefined)	21.1
CC(C)=CC(=O)c1[nH]c2ccccc2c1CC(=O)NCCc1cn(C(c2ccccc2)(c2ccccc2)c2ccccc2)cn1	9.17
CCCCC(=O)OC[n+]1cccc(-c2c(COC(=O)NC(C)C)c(COC(=O)NC(C)C)c3n2CCC3)c1	> 100
CCOC(=O)NC(Nc1ccc(OC(F)(F)F)cc1)(C(F)(F)F)C(F)(F)F	> 100

System: IGROV1 ovarian
Experiment: growth of human tumour cells (NCI), 48 h

Compound	TGI [µM]
COc1ccc(N2C(=O)C3c4[nH]c5ccccc5c4C4CCC(c5ccccc5)CC4C3C2=O)cc1 (centres undefined)	68.8
CC(C)=CC(=O)c1[nH]c2ccccc2c1CC(=O)NCCc1cn(C(c2ccccc2)(c2ccccc2)c2ccccc2)cn1	> 45
CCCCC(=O)OC[n+]1cccc(-c2c(COC(=O)NC(C)C)c(COC(=O)NC(C)C)c3n2CCC3)c1	> 100
CCOC(=O)NC(Nc1ccc(OC(F)(F)F)cc1)(C(F)(F)F)C(F)(F)F	> 100

System: K-562 leukemia
Experiment: growth of human tumour cells (NCI), 48 h

Compound	TGI [µM]
COc1ccc(N2C(=O)C3c4[nH]c5ccccc5c4C4CCC(c5ccccc5)CC4C3C2=O)cc1 (centres undefined)	> 41.3
CC(C)=CC(=O)c1[nH]c2ccccc2c1CC(=O)NCCc1cn(C(c2ccccc2)(c2ccccc2)c2ccccc2)cn1	> 59.6
CCCCC(=O)OC[n+]1cccc(-c2c(COC(=O)NC(C)C)c(COC(=O)NC(C)C)c3n2CCC3)c1	> 100
CCOC(=O)NC(Nc1ccc(OC(F)(F)F)cc1)(C(F)(F)F)C(F)(F)F	> 100

Reference: PubChem BioAssay (NCI)
